In publication PMC8844822, “SARM1 is a multi-functional NAD(P)ase with prominent base exchange activity, all regulated bymultiple physiologically relevant NAD metabolites” (iScience, 2022):

Columns and labels:
hSARM1 full length = molecular target: T1, hSARM1 full length (Homo sapiens, UniProt Q6SZW1); assay: Base exchange reactions at neutral pH (HPLC); assay type: biochemical
T1 construct: Human recombinant SARM1 full length proteins (wild-type and E642A mutant); made in house
T1 sequence (Q6SZW1 28-724): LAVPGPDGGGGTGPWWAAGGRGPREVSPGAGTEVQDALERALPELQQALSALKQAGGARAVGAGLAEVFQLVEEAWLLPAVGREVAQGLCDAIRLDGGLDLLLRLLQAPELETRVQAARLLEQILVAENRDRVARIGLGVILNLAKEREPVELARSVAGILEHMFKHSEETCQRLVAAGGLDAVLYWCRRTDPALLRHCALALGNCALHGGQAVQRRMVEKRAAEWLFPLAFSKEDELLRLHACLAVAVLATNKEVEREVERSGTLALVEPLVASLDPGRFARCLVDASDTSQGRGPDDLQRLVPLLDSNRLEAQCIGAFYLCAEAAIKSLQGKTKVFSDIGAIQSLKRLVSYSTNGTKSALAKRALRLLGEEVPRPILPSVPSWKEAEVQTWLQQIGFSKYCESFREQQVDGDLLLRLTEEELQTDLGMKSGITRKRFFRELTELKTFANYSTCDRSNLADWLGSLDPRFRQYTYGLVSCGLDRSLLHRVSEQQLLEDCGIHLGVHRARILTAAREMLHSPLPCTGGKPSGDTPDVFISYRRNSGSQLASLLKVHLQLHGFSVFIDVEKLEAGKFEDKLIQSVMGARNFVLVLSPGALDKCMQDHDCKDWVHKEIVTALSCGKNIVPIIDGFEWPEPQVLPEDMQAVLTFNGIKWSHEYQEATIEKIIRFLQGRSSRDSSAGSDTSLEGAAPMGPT

DRG neurons = assay: Base exchange products in DRG explant cultures (metabolite extraction, HPLC); assay type: cell-based, mouse; conditions: 4 h; for SARM1 dependence of base exchange product formation: wild-type vs Sarm1^−/− DRG cultures
Method: Dorsal Root Ganglia (DRG) were dissected from C57BL/6J (RRID IMSR_JAX:000664) or Sarm1^-/- (RRID MGI_3765957) E13.5-E14.5 mouse embryos. Explants were cultured in 35 mm tissue culture dishes pre-coated with poly-L-lysine (20 μg/ml for 1 h; Merck) and laminin (20 μg/ml for 1 h; Merck) in Dulbecco's Modified Eagle's Medium (DMEM, Gibco) with 1 % penicillin/streptomycin (Thermo Fisher Scientific), 33 ng/ml 2.5S NGF (Thermo Fisher Scientific) and 2% B27 (Gibco). 4 μM aphidicolin (Merck) was used to reduce proliferation and viability of small numbers of non-neuronal cells ([Loreto and Gilley, 2020]).
Wild-type and Sarm1^−/− DRG neurons were treated at DIV7 with 3-acetylpyridine (AcPyr) or vehicle (H2O), or with vacor or vehicle (H2O with 4% 1 N HCl). Proper drug concentrations and times of collection were determined first by dedicated experiments (see Figure 5A). At the indicated time-point, wild-type and Sarm1^−/− DRG whole explant cultures (typically 30-60 ganglia per condition) were collected, washed in ice-cold PBS and rapidly frozen in dry ice, and stored at −80°C until processed. Next extraction was carried out as reported by grinding in liquid N2, resuspending in HClO4 containing cAMP as internal standard for recovery calculations, sonicating, and neutralizing with K2CO3 ([Mori et al., 2014]). Next HPLC analyses to detect and measure the base exchange formed products, i.e. AcPyrAD or the vacorylated compound VAD, were carried out as described above in the paragraph “NADase assays”. In all samples, recovery yields from spiked cAMP were at least 96%. Furthermore, pellets after extraction of soluble nucleotides were treated as reported ([Mori et al., 2014]) to get reference protein contents to normalize the nucleotide levels. Protein concentrations were determined using the Bradford Reagent (Merck).

[1] = molecular target: T2, Aplysia californica ADP ribosyl cyclase (Aplysia californica, UniProt P29241); assay: Base exchange reactions at neutral pH (HPLC); assay type: biochemical; parameters: purchased Merck A8950
T2 sequence (P29241 25-282): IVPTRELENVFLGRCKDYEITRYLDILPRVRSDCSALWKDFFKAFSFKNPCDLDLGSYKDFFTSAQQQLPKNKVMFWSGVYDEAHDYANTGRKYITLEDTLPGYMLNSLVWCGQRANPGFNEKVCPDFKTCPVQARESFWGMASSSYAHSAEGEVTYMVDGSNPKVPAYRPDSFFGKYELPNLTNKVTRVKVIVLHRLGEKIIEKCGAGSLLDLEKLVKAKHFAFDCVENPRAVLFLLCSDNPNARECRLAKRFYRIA
Method: Multiple time stops from individual assays as above were analyzed for linearity, then extents of hydrolysis (white bars), cyclization (red bars), or base exchange (black bars) were calculated from each corresponding product as shown in Figure 1B and STAR methods. […] See also Figures S3–S5, and Table S1
Rates were calculated as follows.

[2] = hSARM1 full length +NMN 0.2 mM, NAD […]
[3] = hSARM1 full length +NMN 0.2 mM, NAD […] alone or + free base
[4] = hSARM1 full length +NMN 0.2 mM, NAD […], relative to NAD alone without trigger
[5] = hSARM1 full length +NMN 0.2 mM, NADP […]
[6] = hSARM1 full length +NMN 0.2 mM, NADP […] alone or + free base
[7] = hSARM1 full length +NMN 0.2 mM, NADP […], relative to NADP alone without trigger
[8] = hSARM1 full length +VMN 0.05 mM, NAD […]
[9] = hSARM1 full length +VMN 0.05 mM, NAD […] alone or + free base
[10] = hSARM1 full length +VMN 0.05 mM, NAD […], relative to NAD alone without trigger
[11] = hSARM1 full length +VMN 0.05 mM, NADP […]
[12] = hSARM1 full length +VMN 0.05 mM, NADP […] alone or + free base
[13] = hSARM1 full length +VMN 0.05 mM, NADP […], relative to NADP alone without trigger
[14] = hSARM1 full length, no trigger, NAD […] alone or + AcPyr 2 mM / Vacor 0.5 mM / Na 2 mM, pH 7.5
[15] = hSARM1 full length, no trigger, NADP […] alone or + AcPyr 2 mM / Vacor 0.5 mM / Na 2 mM, pH 7.5
[16] = NAD […] alone or + AcPyr 2 mM / Vacor 0.5 mM / Na 2 mM
[17] = NADP […] alone or + AcPyr 2 mM / Vacor 0.5 mM / Na 2 mM

| SMILES | base exchange, share of products (hSARM1 full length; [2]) | cyclization, share of products (hSARM1 full length; [2]) | hydrolysis, share of products (hSARM1 full length; [2]) | rate (hSARM1 full length; [3]) | rate (relative fold) (hSARM1 full length; [4]) | base exchange, share of products (hSARM1 full length; [5]) | hydrolysis, share of products (hSARM1 full length; [5]) | rate (hSARM1 full length; [6]) | rate (relative fold) (hSARM1 full length; [7]) | base exchange, share of products (hSARM1 full length; [8]) | cyclization, share of products (hSARM1 full length; [8]) | hydrolysis, share of products (hSARM1 full length; [8]) | rate (hSARM1 full length; [9]) | rate (relative fold) (hSARM1 full length; [10]) | base exchange, share of products (hSARM1 full length; [11]) | hydrolysis, share of products (hSARM1 full length; [11]) | rate (hSARM1 full length; [12]) | rate (relative fold) (hSARM1 full length; [13]) | rate (hSARM1 full length; [14]) | rate (hSARM1 full length; [15]) | also measured |
| --- | --- | --- | --- | --- | --- | --- | --- | --- | --- | --- | --- | --- | --- | --- | --- | --- | --- | --- | --- | --- | --- |
| CC(=O)c1cccnc1 [AcPyr, 3-acetylpyridine] | 92.73% | 0.80% | 6.47% | 218.5 ±37.4 mU/mg | 10.02 ±1.71 fold | 93.20% | 6.80% | 131.1 ±17.0 mU/mg | 8.92 ±1.16 fold | 93.61% | 0.68% | 5.72% | 228.9 ±18.9 mU/mg | 10.49 ±0.867 fold | 94.18% | 5.82% | 140.7 ±13.3 mU/mg | 9.57 ±0.907 fold | 42.6 ±3.34 mU/mg | 26.6 ±1.71 mU/mg | AcPyrAD formed (DRG neurons; wild-type DRGs, AcPyr 250 μM): 0.446 ± 0.021 nmol per mg of protein; SARM1 dependence of base exchange product formation (DRG neurons): not in treated Sarm1^−/− cultures; rate [1, 16]: 13996 ±624 mU/mg; rate [1, 17]: 15779 ±5215 mU/mg |
| O=C(NCc1cccnc1)Nc1ccc([N+](=O)[O-])cc1 [Vacor, 1-(4-nitrophenyl)-3-(pyridin-3-ylmethyl)urea] | 20.86% | 7.06% | 72.08% | 180.1 ±8.72 mU/mg | 8.26 ±0.400 fold | 23.61% | 76.34% | 134.7 ±5.67 mU/mg | 9.16 ±0.386 fold | 44.98% | 4.75% | 50.27% | 206.2 ±1.12 mU/mg | 9.45 ±0.051 fold | 35.56% | 63.94% | 148.5 ±4.61 mU/mg | 10.11 ±0.314 fold | 29.5 ±2.55 mU/mg | 22.9 ±1.68 mU/mg | cyclization, share of products (hSARM1 full length; [5]): ~ 0.05%; cyclization, share of products (hSARM1 full length; [11]): 0.50%; base exchange products VAD(P) or NaAD(P), share of total products (hSARM1 full length; hSARM1 full length, NAD or NADP 250 μM, vacor 0.5 mM, Na 2 mM): 20%–30%; VAD formed (DRG neurons; wild-type DRGs, vacor 50 μM): ~0.14 nmol/mg; SARM1 dependence of base exchange product formation (DRG neurons): found only in wild-type DRGs; rate [1, 16]: 12748 ±2593 mU/mg; rate [1, 17]: 8132 ±2201 mU/mg |
